This passage reports Ki results from ChEMBL document CHEMBL1141967, “N-Sulfonyl hydroxamate derivatives as inhibitors of class II fructose-1,6-diphosphate aldolase” (Bioorg Med Chem Lett, 2005).

Experiment [1] concerns the target T1, Fructose-bisphosphate aldolase A (Oryctolagus cuniculus, UniProt P00883).
T1 sequence (P00883 whole entry): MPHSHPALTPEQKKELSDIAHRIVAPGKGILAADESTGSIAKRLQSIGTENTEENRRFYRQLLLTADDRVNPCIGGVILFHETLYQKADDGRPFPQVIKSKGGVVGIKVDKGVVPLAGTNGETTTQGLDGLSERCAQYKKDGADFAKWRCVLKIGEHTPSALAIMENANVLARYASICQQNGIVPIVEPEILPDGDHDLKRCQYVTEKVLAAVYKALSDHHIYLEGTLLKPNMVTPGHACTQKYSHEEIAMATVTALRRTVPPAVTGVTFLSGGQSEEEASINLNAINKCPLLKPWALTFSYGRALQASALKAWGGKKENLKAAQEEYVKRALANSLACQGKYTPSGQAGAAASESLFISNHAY
Briefly: Inhibitory activity against class I FBP aldolase from rabbit.

Experiment [2] addresses T2, Fructose-bisphosphate aldolase class 2 (Escherichia coli K-12, UniProt P0AB71).
T2 sequence (P0AB71 whole entry): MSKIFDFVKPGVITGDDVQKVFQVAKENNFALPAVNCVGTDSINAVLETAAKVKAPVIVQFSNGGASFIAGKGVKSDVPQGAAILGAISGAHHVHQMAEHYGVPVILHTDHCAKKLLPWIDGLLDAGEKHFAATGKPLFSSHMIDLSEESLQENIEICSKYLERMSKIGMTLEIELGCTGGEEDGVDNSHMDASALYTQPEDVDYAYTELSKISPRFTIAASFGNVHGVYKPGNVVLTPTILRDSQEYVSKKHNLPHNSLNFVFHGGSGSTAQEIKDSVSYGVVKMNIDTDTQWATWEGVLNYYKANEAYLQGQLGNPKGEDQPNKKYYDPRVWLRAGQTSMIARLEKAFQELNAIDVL
Briefly: Inhibitory activity against class II FBP aldolase from Escherichia coli.

pKi: −log10 of the molar value.

As usually defined, the pKi is the negative decadic logarithm of the Ki, by convention in mol/L. Higher therefore signals a small Ki. As to `O=C(COP(=O)(O)O)NO` [PHOSPHOGLYCOLOHYDROXAMATE], the pKi in experiment [1] is 6.00; in experiment [2], 8.00.
`O=C(CCP(=O)(O)O)NS(=O)(=O)c1ccccc1`: the pKi in experiment [1] and in experiment [2] was less than 2.00 each time.
With `O=C(COP(=O)(O)O)NS(=O)(=O)c1ccccc1`, the results for the pKi in experiment [1] and in experiment [2] were less than 2.00 and 4.00, respectively.
As to `CS(=O)(=O)NC(=O)CCP(=O)(O)O`, the pKi in experiment [1] and in experiment [2] was less than 2.00 throughout.
With `O=C(CCP(=O)(O)O)NO`, the pKi in experiment [1] and in experiment [2] was less than 3.00 in each case.
For the compound `CS(=O)(=O)NC(=O)COP(=O)(O)O`, the pKi was less than 2.00 in experiment [1] and 3.46 in experiment [2].
